Experimental data published in paper PMC10709440, “High-throughput ligand profile characterization in novel cell lines expressing seven heterologous insect olfactory receptors for the detection of volatile plant biomarkers” (Scientific Reports, 2023).

Legend:
OR98a = system: OR98a; parameters: method as in earlier work; conditions: DoOR database value; ref DoOR; cited from earlier work
OR47a = system: OR47a; parameters: method as in earlier work; conditions: DoOR database value; ref DoOR; cited from earlier work
Drosophila OR85b = target: T1, Drosophila OR85b (Drosophila melanogaster, UniProt Q9VHQ7); test: Calcium ion fluorescence (GCaMP6) assay, OR85b stable HEK293 cell line; assay type: cell-based; conditions: for activation at 1 µM / activation at 10 µM / activation at 100 µM: HEK293, read-out: OR85b response (VUAA1-normalized response); for Average response: VUAA1-normalized response, mean of biological replicates
T1 construct: expressed in transfected cells
T1 sequence (Q9VHQ7 1-390): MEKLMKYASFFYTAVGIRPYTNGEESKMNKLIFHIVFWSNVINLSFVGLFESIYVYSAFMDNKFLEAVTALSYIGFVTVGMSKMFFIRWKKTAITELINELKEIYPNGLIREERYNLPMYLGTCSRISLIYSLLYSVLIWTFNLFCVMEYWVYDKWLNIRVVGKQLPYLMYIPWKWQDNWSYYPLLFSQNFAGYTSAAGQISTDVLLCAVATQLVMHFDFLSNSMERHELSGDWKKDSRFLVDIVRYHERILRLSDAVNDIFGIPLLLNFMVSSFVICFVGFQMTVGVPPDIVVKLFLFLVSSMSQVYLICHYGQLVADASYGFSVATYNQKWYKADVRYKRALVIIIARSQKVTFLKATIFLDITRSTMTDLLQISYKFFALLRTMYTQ
T1 sequence (Q9VNB5 1-486 partner): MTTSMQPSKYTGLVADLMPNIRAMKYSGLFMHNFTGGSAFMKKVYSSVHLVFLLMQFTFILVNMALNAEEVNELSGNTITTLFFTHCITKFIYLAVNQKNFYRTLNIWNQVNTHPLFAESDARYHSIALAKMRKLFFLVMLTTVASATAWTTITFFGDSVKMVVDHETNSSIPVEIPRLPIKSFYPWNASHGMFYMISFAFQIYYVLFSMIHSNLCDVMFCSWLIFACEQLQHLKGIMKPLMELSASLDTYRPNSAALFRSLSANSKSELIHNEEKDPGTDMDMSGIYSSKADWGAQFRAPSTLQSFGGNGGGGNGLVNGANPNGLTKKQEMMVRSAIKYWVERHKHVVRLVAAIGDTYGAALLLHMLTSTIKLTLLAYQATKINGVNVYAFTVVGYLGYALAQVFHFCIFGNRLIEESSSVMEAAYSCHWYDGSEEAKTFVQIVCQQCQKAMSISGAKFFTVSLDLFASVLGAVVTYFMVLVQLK
Procedure: These VUAA1 normalized ∆F values were used to compare the different receptors and ligands.
The concentration-dependent effect of the reference ligands on their cognate cell lines was examined in more detail. Twelve different ligand concentrations were measured on each cell line in an overall 0.01 μM to 100 μM concentration range with 5 repetitions with three technical replicates each time.
Twelve thousand to 18,000 cells were plated into each well of a black wall, transparent bottom 384-well microplate (Greiner) 48 h or 72 h before the measurements and were simultaneously treated with 1 μg/mL doxycycline. […] The plate has 24 columns, thus we could record responses in up to eight different cell lines in each plate. On the day of the experiment, the growth medium was replaced with 20 µL assay buffer/well (140 mM NaCl, 5 mM KCl, 2 mM CaCl2, 1 mM MgCl2, 5 mM HEPES-Na, 20 mM glucose, pH 7.3, 340 mOsm). […] Baseline fluorescence (F0) was recorded for 5 s, after which 7 µL VOC buffer (140 mM NaCl, 5 mM KCl, 2 mM CaCl2, 1 mM MgCl2, 5 mM HEPES-Na, 31 mM glucose, 0.1% DMSO, pH 7.3, 340 mOsm) was injected into each well in one row and the fluorescence response was recorded for an additional 30 s, at a rate of one read/sec. VOC solutions (VOC buffer with 4× concentration of the final measured VOC concentration, 9 µL/well was injected) were measured on the same wells in a second round with the same protocol. Each individual concentration of a specific VOC sample was recorded in three wells for the same cell line on the same microplate. The raw data were exported in xls file format, F0 and FMAX values, and the fluorescence intensity changes (∆F) were calculated in Excel (Microsoft) (Supplementary file Data summary.xlsx) using the following equation: ΔF=FMAX-F0/F0 (see also Fig. 1C). On each plate, we recorded the response of each cell line to 50 µM VUAA1. The average of these ∆F values of each cell line were used to calculate the VUAA1-normalized values for the rest of the plate, by dividing VOC response ∆F values by the average VUAA1 response ∆F value of the corresponding OR cell line. Each VOC-OR combination was measured three times as technical replicates. […] The average of these replicates were used as one ∆F and VUAA1-normalized ∆F in the following analysis.
In the next rows we tested the reference VOCs (or other VOCs known to activate the corresponding cell lines), in order to test if all cell lines are responsive. The remaining rows were used to test VOCs with unknown effect.
The recorded FMAX, F0, ∆F, VUAA1-normalized ∆F values, as well as the OR name, the name of the tested sample, and the final concentration for each well were copied into supplementary file Data summary.xlsx, that was used to summarize all the plates recorded. Here, the averages of the measurements were calculated for each receptor-VOC-concentration combination.

OR10a = system: OR10a; parameters: method as in earlier work; conditions: DoOR database value; ref DoOR; cited from earlier work
OR85b = system: OR85b; parameters: method as in earlier work; conditions: DoOR database value; ref DoOR; cited from earlier work
OR49b = system: OR49b; parameters: method as in earlier work; conditions: DoOR database value; ref DoOR; cited from earlier work
[1] = concentration 1, normalized fluorescence change, values below 0.05 threshold given as 0
[2] = concentration 10, normalized fluorescence change, values below 0.05 threshold given as 0
[3] = concentration 100, normalized fluorescence change, values below 0.05 threshold given as 0
[4] = ligand concentration 1 (unit not given), threshold 0.05, below shown as 0
[5] = ligand concentration 10 (unit not given), threshold 0.05, below shown as 0
[6] = ligand concentration 100 (unit not given), threshold 0.05, below shown as 0

| SMILES | OR98a DoOR response (OR98a) | OR47a DoOR response (OR47a) | activation at 1 µM (Drosophila OR85b) [%] | activation at 10 µM (Drosophila OR85b) [%] | activation at 100 µM (Drosophila OR85b) [%] | Average response (Drosophila OR85b; OR85b cell line, cc. 1 µM) | Average response (Drosophila OR85b; OR85b cell line, cc. 10 µM) | Average response (Drosophila OR85b; OR85b cell line, cc. 100 µM) | DF norm AVERAGE OR85b (Drosophila OR85b; [1]) | DF norm AVERAGE OR85b (Drosophila OR85b; [2]) | DF norm AVERAGE OR85b (Drosophila OR85b; [3]) | OR10a DoOR response (OR10a) | OR85b DoOR response (OR85b) | OR49b DoOR response (OR49b) | DF norm AVERAGE OR85b (Drosophila OR85b; [4]) | DF norm AVERAGE OR85b (Drosophila OR85b; [5]) | DF norm AVERAGE OR85b (Drosophila OR85b; [6]) | OR85b response (VUAA1-normalized) at 1 μM (Drosophila OR85b; OR85b cell line, VOC concentration 1 μM) | OR85b response (VUAA1-normalized) at 10 μM (Drosophila OR85b; OR85b cell line, VOC concentration 10 μM) | OR85b response (VUAA1-normalized) at 100 μM (Drosophila OR85b; OR85b cell line, VOC concentration 100 μM) |
| --- | --- | --- | --- | --- | --- | --- | --- | --- | --- | --- | --- | --- | --- | --- | --- | --- | --- | --- | --- | --- |
| CCCCCO [1-pentanol] | 0.23 | 0.17 | 0 | 0 | 0 | 0.00 | 0.00 | 0.00 | 0 | 0 | 0 | 0.034 | 0.51 | 0.09 | – | – | – | – | – | – |
| CCCCOC(=O)CC [butyl propanoate] | – | 0.38 | – | – | – | – | – | – | – | – | – | 0.011 | – | – | – | – | – | – | – | – |
| CCCCCC(=O)OCC [ethyl hexanoate] | 0.17 | 0.42 | 0 | 0 | 0 | 0.00 | 0.05 | 0.0232 | – | – | – | -0.012 | 0.24 | 0.007 | 0 | 0 | 0 | – | – | – |
| Cc1cccc(O)c1 [3-methylphenol] | – | – | 0 | 0 | 0 | 0.0267 | 0.0173 | 0.02 | 0 | 0 | 0 | – | – | 0.54 | – | – | – | – | – | – |
| C=C1CCC2(C(C)C)CC12 (centres unmarked) [sabinene] | – | – | – | – | – | 0.0647 | 0.0439 | 0.09 | – | – | – | – | – | – | 0.06468 | 0 | 0.08701 | 0.0647 | 0.00 | 0.09 |
| C=C1CC[C@H]2O[C@]2(C)CC[C@@H]2[C@@H]1CC2(C)C [(-)-caryophyllene oxide] | – | – | 0 | 0 | 0 | 0.00 | 0.00 | 0.036 | 0 | 0 | 0 | – | – | – | – | – | – | – | – | – |
| CCCCCCCCCC=O [decanal] | – | – | 0 | 0 | 0 | 0.00 | 0.0324 | 0.00 | – | – | – | 0.08 | – | – | 0 | 0 | 0 | – | – | – |
